{
  "source": "PubChem BioAssay (NCI)",
  "test_in_all_cases": "NCI-60 cell line screen, 48 h",
  "key": {"A549 NSCLC": {"test_system": "A549 NSCLC"}, "UO-31 renal": {"test_system": "UO-31 renal"}, "OVCAR-3 ovarian": {"test_system": "OVCAR-3 ovarian"}, "K-562 leukemia": {"test_system": "K-562 leukemia"}, "NCI-H460 lung": {"test_system": "NCI-H460 lung"}, "SF-295 CNS": {"test_system": "SF-295 CNS"}, "SK-MEL-5 melanoma": {"test_system": "SK-MEL-5 melanoma"}, "IGROV1 ovarian": {"test_system": "IGROV1 ovarian"}, "OVCAR-5 ovarian": {"test_system": "OVCAR-5 ovarian"}, "PC-3 prostate": {"test_system": "PC-3 prostate"}, "SF-539 CNS": {"test_system": "SF-539 CNS"}, "SK-OV-3 ovarian": {"test_system": "SK-OV-3 ovarian"}, "EKVX NSCLC": {"test_system": "EKVX NSCLC"}, "HCT-116 colon": {"test_system": "HCT-116 colon"}, "DU-145 prostate": {"test_system": "DU-145 prostate"}, "SN12C renal": {"test_system": "SN12C renal"}, "RXF 393 renal": {"test_system": "RXF 393 renal"}, "HT29 colon": {"test_system": "HT29 colon"}, "HOP-62 NSCLC": {"test_system": "HOP-62 NSCLC"}, "NCI/ADR-RES ovarian": {"test_system": "NCI/ADR-RES ovarian"}, "LOX IMVI melanoma": {"test_system": "LOX IMVI melanoma"}, "KM12 colon": {"test_system": "KM12 colon"}, "COLO 205 colon": {"test_system": "COLO 205 colon"}, "CCRF-CEM leukemia": {"test_system": "CCRF-CEM leukemia"}, "BT-549 breast": {"test_system": "BT-549 breast"}, "UACC-257 melanoma": {"test_system": "UACC-257 melanoma"}, "T-47D breast": {"test_system": "T-47D breast"}, "ACHN renal": {"test_system": "ACHN renal"}, "786-0 renal": {"test_system": "786-0 renal"}},
  "note": "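Compound exposure: 48 hours, 5 concentrations, 96-well plates. Here, GI50 denotes the concentration required for 50% inhibition of growth. TGI is the concentration that stops growth completely.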",
  "data": [
    {"smiles": "Cc1ccccc1[C@H]1C(C(=O)c2ccc(Cl)cc2)C2(N[C@@H]1c1ccccc1)C(=O)Nc1ccccc12", "note": "(stereo partly drawn)", "values": [
      {"measurement": "GI50", "setting": "A549 NSCLC", "result": 5.81, "unit": "µM"},
      {"measurement": "TGI", "setting": "A549 NSCLC", "result": 20.4, "unit": "µM"},
      {"measurement": "GI50", "setting": "UO-31 renal", "result": 4.6, "unit": "µM"},
      {"measurement": "TGI", "setting": "UO-31 renal", "result": 10.8, "unit": "µM"},
      {"measurement": "GI50", "setting": "OVCAR-3 ovarian", "result": 1.64, "unit": "µM"},
      {"measurement": "TGI", "setting": "OVCAR-3 ovarian", "result": 7.17, "unit": "µM"},
      {"measurement": "GI50", "setting": "K-562 leukemia", "result": 5.11, "unit": "µM"},
      {"measurement": "TGI", "setting": "K-562 leukemia", "result": 42.3, "unit": "µM"},
      {"measurement": "GI50", "setting": "NCI-H460 lung", "result": 6.15, "unit": "µM"},
      {"measurement": "TGI", "setting": "NCI-H460 lung", "result": 14.9, "unit": "µM"},
      {"measurement": "GI50", "setting": "SF-295 CNS", "result": 5.3, "unit": "µM"},
      {"measurement": "TGI", "setting": "SF-295 CNS", "result": 13.2, "unit": "µM"},
      {"measurement": "GI50", "setting": "SK-MEL-5 melanoma", "result": 5.25, "unit": "µM"},
      {"measurement": "TGI", "setting": "SK-MEL-5 melanoma", "result": 10.6, "unit": "µM"},
      {"measurement": "GI50", "setting": "IGROV1 ovarian", "result": 5.63, "unit": "µM"},
      {"measurement": "TGI", "setting": "IGROV1 ovarian", "result": 14, "unit": "µM"},
      {"measurement": "GI50", "setting": "OVCAR-5 ovarian", "result": 4.37, "unit": "µM"},
      {"measurement": "TGI", "setting": "OVCAR-5 ovarian", "result": 9.67, "unit": "µM"},
      {"measurement": "GI50", "setting": "PC-3 prostate", "result": 2.08, "unit": "µM"},
      {"measurement": "TGI", "setting": "PC-3 prostate", "result": 10.5, "unit": "µM"},
      {"measurement": "GI50", "setting": "SF-539 CNS", "result": 6.95, "unit": "µM"},
      {"measurement": "TGI", "setting": "SF-539 CNS", "result": 13.6, "unit": "µM"},
      {"measurement": "GI50", "setting": "SK-OV-3 ovarian", "result": 7.41, "unit": "µM"},
      {"measurement": "TGI", "setting": "SK-OV-3 ovarian", "result": 31.5, "unit": "µM"},
      {"measurement": "GI50", "setting": "EKVX NSCLC", "result": 4.96, "unit": "µM"},
      {"measurement": "TGI", "setting": "EKVX NSCLC", "result": 17.2, "unit": "µM"},
      {"measurement": "GI50", "setting": "HCT-116 colon", "result": 2.46, "unit": "µM"},
      {"measurement": "TGI", "setting": "HCT-116 colon", "result": 8.7, "unit": "µM"},
      {"measurement": "GI50", "setting": "DU-145 prostate", "result": 4.91, "unit": "µM"},
      {"measurement": "TGI", "setting": "DU-145 prostate", "result": 12.8, "unit": "µM"},
      {"measurement": "GI50", "setting": "SN12C renal", "result": 4.92, "unit": "µM"},
      {"measurement": "TGI", "setting": "SN12C renal", "result": 10.1, "unit": "µM"},
      {"measurement": "GI50", "setting": "RXF 393 renal", "result": 1.42, "unit": "µM"},
      {"measurement": "TGI", "setting": "RXF 393 renal", "result": 6.02, "unit": "µM"},
      {"measurement": "GI50", "setting": "HT29 colon", "result": 3.42, "unit": "µM"},
      {"measurement": "TGI", "setting": "HT29 colon", "result": 11.4, "unit": "µM"},
      {"measurement": "GI50", "setting": "HOP-62 NSCLC", "result": 6.26, "unit": "µM"},
      {"measurement": "TGI", "setting": "HOP-62 NSCLC", "result": 13, "unit": "µM"},
      {"measurement": "GI50", "setting": "NCI/ADR-RES ovarian", "result": 4.41, "unit": "µM"},
      {"measurement": "TGI", "setting": "NCI/ADR-RES ovarian", "result": 10.8, "unit": "µM"},
      {"measurement": "GI50", "setting": "LOX IMVI melanoma", "result": 2.51, "unit": "µM"},
      {"measurement": "TGI", "setting": "LOX IMVI melanoma", "result": 7.97, "unit": "µM"},
      {"measurement": "GI50", "setting": "KM12 colon", "result": 6.73, "unit": "µM"},
      {"measurement": "TGI", "setting": "KM12 colon", "result": 16.2, "unit": "µM"},
      {"measurement": "GI50", "setting": "COLO 205 colon", "result": 7.31, "unit": "µM"},
      {"measurement": "TGI", "setting": "COLO 205 colon", "result": 13.8, "unit": "µM"},
      {"measurement": "GI50", "setting": "CCRF-CEM leukemia", "result": 4.8, "unit": "µM"},
      {"measurement": "TGI", "setting": "CCRF-CEM leukemia", "result": 26.8, "unit": "µM"},
      {"measurement": "GI50", "setting": "BT-549 breast", "result": 5.47, "unit": "µM"},
      {"measurement": "TGI", "setting": "BT-549 breast", "result": 11, "unit": "µM"},
      {"measurement": "GI50", "setting": "UACC-257 melanoma", "result": 5.81, "unit": "µM"},
      {"measurement": "TGI", "setting": "UACC-257 melanoma", "result": 15.3, "unit": "µM"},
      {"measurement": "GI50", "setting": "T-47D breast", "result": 4.91, "unit": "µM"},
      {"measurement": "TGI", "setting": "T-47D breast", "result": 11.6, "unit": "µM"},
      {"measurement": "GI50", "setting": "ACHN renal", "result": 6.46, "unit": "µM"},
      {"measurement": "TGI", "setting": "ACHN renal", "result": 14.8, "unit": "µM"},
      {"measurement": "GI50", "setting": "786-0 renal", "result": 6.9, "unit": "µM"},
      {"measurement": "TGI", "setting": "786-0 renal", "result": 16.3, "unit": "µM"}
    ]}
  ]
}
